Measured values: patent publication US20100056596A1, “RESISTANCE-REPELLENT RETROVIRAL PROTEASE INHIBITORS” (Sequoia Pharmaceuticals, priority 2004, published 2010)
Read-outs that look alike come from different tables or passages of the source.

Assays:
[1] = molecular target: HIV-1 protease Mutant 9 (Human immunodeficiency virus type 1, UniProt P04585); test: Ki against HIV-1 protease Mutant 9; type: biochemical; settings: Mutant 9
[2] = molecular target: T1, wild type HIV-1 protease (Human immunodeficiency virus type 1 group M subtype B, UniProt P04585); test: Ki against wild type (WT) HIV-1 protease; type: biochemical; settings: WT
T1 construct: over 45 of the 99 amino acids of the HIV protease monomer

[3] = tested on: HIV-1 isolates, Mutant 8; test: In vitro drug sensitivity of HIV-1 laboratory isolates, Mutant 8; type: cell-based
Procedure: (§1) In Vitro Drug Sensitivity of HIV-1 Laboratory Isolates to PIs
(§2) The sensitivities of HIV-1 isolates against compounds of the invention were determined as previously described with minor modifications (Shiraska et al., Proc. Natl. Acad. Sci. USA, 92, 2398-2402 (1995)).

[4] = tested on: HIV-1 isolates, Mutant 9; test: In vitro drug sensitivity of HIV-1 laboratory isolates, Mutant 9; type: cell-based
Procedure: as §1, §2

[5] = tested on: HIV-1 isolates, WT; test: In vitro drug sensitivity of HIV-1 laboratory isolates, WT; type: cell-based
Procedure: as §1, §2

[6] = molecular target: HIV-1 protease Mutant 8 (Human immunodeficiency virus type 1, UniProt P04585); test: Ki against HIV-1 protease Mutant 8; type: biochemical; settings: Mutant 8
[7] = Human immunodeficiency virus 1, read-out: IC50 Mutant 8
[8] = Human immunodeficiency virus 1, read-out: IC50 Mutant 9
[9] = Mutant 8, read-out: IC50 Mutant 8
[10] = Mutant 9, read-out: IC50 Mutant 9

SMILES	Ki [1] [nM]	Ki [2] [nM]	IC50 [3, 7] [nM]	IC50 [4, 8] [nM]	IC50 ([5]; Human immunodeficiency virus 1) [nM]	Ki [6] [nM]	IC50 [3, 9] [nM]	IC50 [4, 10] [nM]	IC50 ([5]; WT) [nM]
CC(C)CN(C[C@@H](O)[C@H](Cc1ccccc1)NC(=O)OC1CO[C@H]2OCC[C@@H]12)S(=O)(=O)c1ccc2c(c1)CCO2 (some centres unmarked)	1.5	< 0.1	13	157	1	< 0.3			
CC(C)CN(C[C@@H](O)[C@H](Cc1ccccc1)NC(=O)OC1CO[C@H]2OCC[C@@H]12)S(=O)(=O)c1ccc2c(c1)C(C)CO2 (some centres unmarked)	7.5	< 0.1	56	900	1.5				
CC(C)CN(C[C@@H](O)[C@H](Cc1ccccc1)NC(=O)OC1CO[C@H]2OCC[C@@H]12)S(=O)(=O)c1ccc2c(c1)CC(CO)O2 (some centres unmarked)	9	< 0.1	47	500	5.4	0.38			
CC(C)CN(C[C@@H](O)[C@H](Cc1ccccc1)NC(=O)OC1COC2OCCC12)S(=O)(=O)c1ccc2c(c1)C(=O)CCO2 (some centres unmarked)	4.9	< 0.1	42	625	3.5	0.42			
CC(C)CN(CC(O)C(Cc1ccccc1)NC(=O)OC1COC2OCCC12)S(=O)(=O)c1ccc2occc2c1 (centres unmarked) [Compound 101, {3-[(Benzofuran-5-sulfonyl)-isobutyl-amino]-1-benzyl-2-hydroxy-propyl}-carbamic acid hexahydro-furo[2,3-b]furan-3-yl ester]	0.5	< 0.1	16	120	1.6	< 0.3			
Cc1cc2cc(S(=O)(=O)N(CC(C)C)CC(O)C(Cc3ccccc3)NC(=O)OC3COC4OCCC34)ccc2o1 (centres unmarked) [Compound 102]	0.96	< 0.1	90	> 400	3.7	< 0.3			
Cc1coc2ccc(S(=O)(=O)N(CC(C)C)CC(O)C(Cc3ccccc3)NC(=O)OC3COC4OCCC34)cc12 (centres unmarked) [Compound 103]	0.48	< 0.1	35	300	3.7	< 0.3			
CC(C)CN(C[C@@H](O)[C@H](Cc1ccccc1)NC(=O)OC1COC2OCCC12)S(=O)(=O)c1ccc2oc(CBr)cc2c1 (some centres unmarked) [Compound 104]	0.41	< 0.1				< 0.3	41	230	8
CC(C)CN(CC(O)C(Cc1ccccc1)NC(=O)OC1COC2OCCC12)S(=O)(=O)c1ccc2oc(CN)cc2c1 (centres unmarked) [Compound 105]	1.9	< 0.1	30	220	7	< 0.3			
CC(=O)NCc1coc2ccc(S(=O)(=O)N(CC(C)C)C[C@@H](O)[C@H](Cc3ccccc3)NC(=O)OC3COC4OCCC34)cc12 (some centres unmarked) [Compound 107]	0.26	< 0.1				< 0.3	28	42	15
CC(C)CN(C[C@@H](O)[C@H](Cc1ccccc1)NC(=O)OC1COC2OCCC12)S(=O)(=O)c1ccc2occ(CN3CCOCC3)c2c1 (some centres unmarked) [Compound 108]	1.5	< 0.1				< 0.3	38	420	1.5
CC(C)CN(C[C@@H](O)[C@H](Cc1ccccc1)NC(=O)OC1COC2OCCC12)S(=O)(=O)c1ccc2occ(CN3CCCCC3)c2c1 (some centres unmarked) [Compound 109]	2.8	< 0.1				< 0.3	30	> 400	2
CC(C)CN(C[C@@H](O)[C@H](Cc1ccccc1)NC(=O)OC1COC2OCCC12)S(=O)(=O)c1ccc2occ(CNCC(=O)OC(C)(C)C)c2c1 (some centres unmarked) [Compound 110]	0.32	< 0.1				< 0.3	33	62	3.4
CCCC[S+]([O-])Cc1coc2ccc(S(=O)(=O)N(CC(C)C)C[C@@H](O)[C@H](Cc3ccccc3)NC(=O)OC3COC4OCCC34)cc12 (some centres unmarked) [Compound 111]	0.16	< 0.1	24	49	8	< 0.3			
CCOC(=O)NCc1coc2ccc(S(=O)(=O)N(CC(C)C)C[C@@H](O)[C@H](Cc3ccccc3)NC(=O)OC3COC4OCCC34)cc12 (some centres unmarked) [Compound 112]	< 0.1	< 0.1				< 0.3	11	29	1.8
CCC(=O)NCc1coc2ccc(S(=O)(=O)N(CC(C)C)C[C@@H](O)[C@H](Cc3ccccc3)NC(=O)OC3COC4OCCC34)cc12 (some centres unmarked) [Compound 113]	< 0.1	< 0.1				< 0.3	20	50	7
CC(C)CN(CC(O)C(Cc1ccccc1)NC(=O)OC1COC2OCCC12)S(=O)(=O)c1ccc2occ(CNC(=O)c3ccccc3)c2c1 (centres unmarked) [Compound 114, (3-{[3-(Benzoylamino-methyl)-benzofuran-5-sulfonyl]-isobutyl-amino}-1-benzyl-2-hydroxy-propyl)-carbamic acid hexahydro-furo[2,3-b]furan-3-yl ester]	< 0.1	0.1	23	30	4	< 0.3			
CC(C)CN(CC(O)C(Cc1ccccc1)NC(=O)OC1COC2OCCC12)S(=O)(=O)c1ccc2occ(CNS(=O)(=O)C(C)C)c2c1 (centres unmarked) [Compound 115]	0.27	< 0.1	18	64	6	< 0.3			
CC(C)CN(C[C@@H](O)[C@H](Cc1ccccc1)NC(=O)OC1COC2OCCC12)S(=O)(=O)c1ccc2occ(CNC(=O)CNC(=O)OCc3ccccc3)c2c1 (some centres unmarked) [Compound 116]	0.41	< 0.1				< 0.3	50	58	15
CC(C)CN(C[C@@H](O)[C@H](Cc1ccccc1)NC(=O)OC1COC2OCCC12)S(=O)(=O)c1ccc2occ(CNCCc3ccccn3)c2c1 (some centres unmarked) [Compound 117]	< 0.1	< 0.1				< 0.3	27	49	7
CC(C)CN(C[C@@H](O)[C@H](Cc1ccccc1)NC(=O)OC1COC2OCCC12)S(=O)(=O)c1ccc2occ(CNC(=O)c3cccnc3)c2c1 (some centres unmarked) [Compound 118]	0.12	< 0.1				< 0.3	35	39	30
CC(C)CN(C[C@@H](O)[C@H](Cc1ccccc1)NC(=O)OC1COC2OCCC12)S(=O)(=O)c1ccc2occ(CNC(=O)CSCc3ccccc3)c2c1 (some centres unmarked) [Compound 119]	0.95	0.12				< 0.3	42	170	5
CC(C)CN(CC(O)C(Cc1ccccc1)NC(=O)OC1COC2OCCC12)S(=O)(=O)c1ccc2occ(CNC(=O)C[S+]([O-])Cc3ccccc3)c2c1 (centres unmarked) [Compound 120]	0.22	< 0.1	31	150	20	< 0.3			
